Literature values as cited in patent US6080725A, “Immunostimulating and vaccine compositions employing saponin analog adjuvants and uses thereof” (priority 1999, dated 2000).
Where two headings read alike, the source gives them in different places.

System: lymphoproliferative test

CC(=O)O[C@@H]1[C@H](O[C@@H]2O[C@@H](CO)[C@H](O)[C@H]2O)[C@@H](O[C@@H]2O[C@@H](C)[C@H](O[C@@H]3OC[C@@H](O)[C@H](O)[C@H]3O)[C@@H](O)[C@H]2O)[C@H](OC(=O)[C@]23CCC(C)(C)C[C@H]2C2=CC[C@@H]4[C@@]5(C)CC[C@H](O[C@@H]6O[C@H](C(=O)O)[C@@H](O)[C@H](O[C@@H]7OC[C@@H](O)[C@H](O)[C@H]7O)[C@H]6O[C@@H]6O[C@H](CO)[C@H](O)[C@H](O)[C@H]6O)[C@@](C)(C=O)[C@H]5CC[C@@]4(C)[C@]2(C)CC3)O[C@@H]1C [squarroside A]
immunomodulating effect, lymphoproliferative test (concentrations in the pg range): stimulant effect
immunomodulating effect, lymphoproliferative test (concentrations in the μg range): suppressive effect
immunomodulating activity, lymphoproliferative test (dose-dependent): immunomodulating activity
